Experimental data from patent US20220033426A1, “Transition Metal Macrocyclics as MRI Contrast Agents for Molecular Imaging” (YALE UNIVERSITY, priority 2020, published 2022).

Assays:
[1] = Temperature sensitivity of 1H NMR proton chemical shift (BIRDS), variable temperature; format: physicochemical; settings: At 11.7 T and a temperature range of 25-42° C.
From the text: (§1) For paramagnetic complexes, the total chemical shift of the nuclear spin (δO) is dependent on the cumulative effects of diamagnetic (δD) and paramagnetic (δP) terms, where δP is typically much larger than δD, which has also a very weak temperature dependence. Thus, the effect of temperature on the chemical shift is dominated by δP. Similarly, protonation of an exchangeable group from the complex can modify its geometry and alter its chemical shifts, thus providing pH sensing capability. Variation of the total shift term, ΔδO, when temperature changes by ΔT and pH changes by ΔpH, can be modeled as
(§2) where CT=(ΔδO/ΔT)pH,[X] is the temperature sensitivity, CpH=(ΔδO/Δ pH)T,[X] is the pH sensitivity, and CX represents the sensitivity to cation X concentration (see Coman, D. et al., “Brain temperature by Biosensor Imaging of Redundant Deviation in Shifts (BIRDS): comparison between TmDOTP5^− and TmDOTMA^−,” NMR in Biomedicine, 2010, 23(3):277-285 for details). pH or temperature sensing with BIRDS depends on CT and CpH in relation to ΔδO (>>10^1 ppm) and is inherently independent of agent concentration and static magnetic field (BO) (Coman, D. et al., “Brain temperature and pH measured by 1H chemical shift imaging of a thulium agent,” NMR in Biomedicine, 2009, 22(2):229-239).
(§3) Since the ^1H NMR chemical shifts of the —NH peaks in the [XDOTA-4AmC]^2− and [XDOTA-4AmP]^6− complexes are temperature and pH-dependent (FIG. 6 and FIG. 7), they can be used for measurements of temperature and pH using BIRDS (Table 1). […] In the [XDOTMA]^2− set of complexes, it was observed that the —CH3 proton resonance has a higher intensity compared to other nonexchangeable proton peaks, like H2 or H3 (FIG. 2). The 3D surface plots in FIGS. 10A-C represent the temperature and pH dependencies of the —CH3 proton resonance of the [XDOTMA]^2− complex.

[2] = pH sensitivity of 1H NMR proton chemical shift (BIRDS), variable pH; format: physicochemical; settings: At 11.7 T and a pH range of 6.5-8.0
From the text: as §1, §2, §3

Row | SMILES | Temperature Sensitivity, —NH proton resonance [1] | pH Sensitivity, —NH proton resonance [2]
1 | O=C([O-])CNC(=O)CN1CCN(CC(=O)NCC(=O)[O-])CCN(CC(=O)NCC(=O)[O-])CCN(CC(=O)NCC(=O)[O-])CC1.[Fe+2] [[Fe(ii)DOTA-4AmC]^2−] | 0.16 ± 0.01 ppm/° C. | 0.04 ± 0.02 ppm/pH unit
2 | O=C(CN1CCN(CC(=O)NCP(=O)([O-])[O-])CCN(CC(=O)NCP(=O)([O-])[O-])CCN(CC(=O)NCP(=O)([O-])[O-])CC1)NCP(=O)([O-])[O-].[Co+2] [[Co(ii)DOTA-4AmP]^6−] | 0.14 ± 0.01 ppm/° C. | 0.37 ± 0.08 ppm/pH unit
3 | O=C([O-])CNC(=O)CN1CCN(CC(=O)NCC(=O)[O-])CCN(CC(=O)NCC(=O)[O-])CCN(CC(=O)NCC(=O)[O-])CC1.[Ni+2] [[Ni(ii)DOTA-4AmC]^2−] | 0.14 ± 0.02 ppm/° C. | 1.07 ± 0.12 ppm/pH unit
